Source: publication PMC9814781, “Structure-based design of a dual-warhead covalent inhibitor of FGFR4” (Communications Chemistry, 2022)

Tests used:
Test in all cases: Kinase selectivity profiling
[1] = target: TSSK1 (Homo sapiens, UniProt Q9BXA7)
[2] = target: PIM3 (Homo sapiens, UniProt Q86V86)
[3] = target: SYK (Homo sapiens, UniProt P43405)
[4] = target: BMX (Homo sapiens, UniProt P51813)
[5] = target: ALK (Homo sapiens, UniProt Q9UM73)
[6] = target: IKKε(IKBKE) (Homo sapiens, UniProt Q14164)
[7] = target: FLT1 (VEGFR1) (Homo sapiens, UniProt P17948)
[8] = target: GSK3α (Homo sapiens, UniProt P49840)
[9] = target: EPHA6 (Homo sapiens, UniProt Q9UF33)
[10] = target: Erk1 (Homo sapiens, UniProt P27361)
[11] = target: SGK (Homo sapiens, UniProt O00141)
[12] = target: PIM2 (Homo sapiens, UniProt Q9P1W9)
[13] = target: HIPK4 (Homo sapiens, UniProt Q8NE63)
[14] = target: Pkca (Homo sapiens, UniProt P17252)
[15] = target: ABL2 (Homo sapiens, UniProt P42684)
[16] = target: CDK2/CycE1 (Homo sapiens, UniProt P24941)
[17] = target: CLK1 (Homo sapiens, UniProt P49759)
[18] = target: TGFbR1 (Homo sapiens, UniProt P36897)
[19] = target: PAK3 (Homo sapiens, UniProt O75914)
[20] = target: JAK2 (Homo sapiens, UniProt O60674)
[21] = target: SGK2 (Homo sapiens, UniProt Q9HBY8)
[22] = target: FGFR2 (Homo sapiens, UniProt P21802)
[23] = target: MAPKAPK2 (Homo sapiens, UniProt P49137)
[24] = target: ROS1 (Homo sapiens, UniProt P08922)
[25] = target: EPHA8 (Homo sapiens, UniProt P29322)
[26] = target: CLK3 (Homo sapiens, UniProt P49761)
[27] = target: TAOK1 (Homo sapiens, UniProt Q7L7X3)
[28] = target: CDK5/p35NCK (Homo sapiens, UniProt Q00535)
[29] = target: FYNb (Homo sapiens, UniProt P06241)
[30] = target: CDK2/CycA2 (Homo sapiens, UniProt P24941)
[31] = target: BRSK2 (Homo sapiens, UniProt Q8IWQ3)
[32] = target: EPHA4 (Homo sapiens, UniProt P54764)
[33] = target: CDK1/CycE1 (Homo sapiens, UniProt P06493)
[34] = target: EGFR (Homo sapiens, UniProt P00533)
[35] = target: PLK2 (Homo sapiens, UniProt Q9NYY3)
Chain of PLK2 (Q9NYY3 whole entry): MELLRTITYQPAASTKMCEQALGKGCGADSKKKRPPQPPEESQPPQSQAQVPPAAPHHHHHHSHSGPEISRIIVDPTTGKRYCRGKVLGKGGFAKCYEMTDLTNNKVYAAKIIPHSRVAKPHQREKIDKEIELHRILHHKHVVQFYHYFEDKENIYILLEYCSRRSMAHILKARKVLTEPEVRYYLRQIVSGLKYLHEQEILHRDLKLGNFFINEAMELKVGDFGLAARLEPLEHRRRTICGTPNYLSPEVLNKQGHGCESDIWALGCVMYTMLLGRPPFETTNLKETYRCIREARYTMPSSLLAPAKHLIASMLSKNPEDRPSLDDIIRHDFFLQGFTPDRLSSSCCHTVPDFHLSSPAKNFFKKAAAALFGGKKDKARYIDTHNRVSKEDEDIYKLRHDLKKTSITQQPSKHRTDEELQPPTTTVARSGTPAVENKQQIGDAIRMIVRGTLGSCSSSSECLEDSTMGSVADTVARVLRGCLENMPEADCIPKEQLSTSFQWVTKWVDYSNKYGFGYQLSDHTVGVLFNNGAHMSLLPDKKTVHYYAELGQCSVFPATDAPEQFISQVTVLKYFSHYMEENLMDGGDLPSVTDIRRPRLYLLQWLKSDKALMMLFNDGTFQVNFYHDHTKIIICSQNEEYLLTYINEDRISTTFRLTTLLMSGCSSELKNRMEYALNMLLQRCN

Chain of GSK3α (P49840 whole entry): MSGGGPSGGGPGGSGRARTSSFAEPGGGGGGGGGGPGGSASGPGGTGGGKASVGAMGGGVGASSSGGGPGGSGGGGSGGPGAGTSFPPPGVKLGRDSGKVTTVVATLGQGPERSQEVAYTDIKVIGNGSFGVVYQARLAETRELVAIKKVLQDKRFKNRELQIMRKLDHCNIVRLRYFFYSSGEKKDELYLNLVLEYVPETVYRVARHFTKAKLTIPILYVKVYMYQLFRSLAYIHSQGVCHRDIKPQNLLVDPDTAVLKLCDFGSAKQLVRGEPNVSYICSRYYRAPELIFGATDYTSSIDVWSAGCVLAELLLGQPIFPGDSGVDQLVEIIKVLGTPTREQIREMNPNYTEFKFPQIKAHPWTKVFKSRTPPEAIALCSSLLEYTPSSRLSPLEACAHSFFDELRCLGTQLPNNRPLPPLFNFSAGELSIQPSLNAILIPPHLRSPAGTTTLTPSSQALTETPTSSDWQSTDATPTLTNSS
Chain of FLT1 (VEGFR1) (P17948 27-1338): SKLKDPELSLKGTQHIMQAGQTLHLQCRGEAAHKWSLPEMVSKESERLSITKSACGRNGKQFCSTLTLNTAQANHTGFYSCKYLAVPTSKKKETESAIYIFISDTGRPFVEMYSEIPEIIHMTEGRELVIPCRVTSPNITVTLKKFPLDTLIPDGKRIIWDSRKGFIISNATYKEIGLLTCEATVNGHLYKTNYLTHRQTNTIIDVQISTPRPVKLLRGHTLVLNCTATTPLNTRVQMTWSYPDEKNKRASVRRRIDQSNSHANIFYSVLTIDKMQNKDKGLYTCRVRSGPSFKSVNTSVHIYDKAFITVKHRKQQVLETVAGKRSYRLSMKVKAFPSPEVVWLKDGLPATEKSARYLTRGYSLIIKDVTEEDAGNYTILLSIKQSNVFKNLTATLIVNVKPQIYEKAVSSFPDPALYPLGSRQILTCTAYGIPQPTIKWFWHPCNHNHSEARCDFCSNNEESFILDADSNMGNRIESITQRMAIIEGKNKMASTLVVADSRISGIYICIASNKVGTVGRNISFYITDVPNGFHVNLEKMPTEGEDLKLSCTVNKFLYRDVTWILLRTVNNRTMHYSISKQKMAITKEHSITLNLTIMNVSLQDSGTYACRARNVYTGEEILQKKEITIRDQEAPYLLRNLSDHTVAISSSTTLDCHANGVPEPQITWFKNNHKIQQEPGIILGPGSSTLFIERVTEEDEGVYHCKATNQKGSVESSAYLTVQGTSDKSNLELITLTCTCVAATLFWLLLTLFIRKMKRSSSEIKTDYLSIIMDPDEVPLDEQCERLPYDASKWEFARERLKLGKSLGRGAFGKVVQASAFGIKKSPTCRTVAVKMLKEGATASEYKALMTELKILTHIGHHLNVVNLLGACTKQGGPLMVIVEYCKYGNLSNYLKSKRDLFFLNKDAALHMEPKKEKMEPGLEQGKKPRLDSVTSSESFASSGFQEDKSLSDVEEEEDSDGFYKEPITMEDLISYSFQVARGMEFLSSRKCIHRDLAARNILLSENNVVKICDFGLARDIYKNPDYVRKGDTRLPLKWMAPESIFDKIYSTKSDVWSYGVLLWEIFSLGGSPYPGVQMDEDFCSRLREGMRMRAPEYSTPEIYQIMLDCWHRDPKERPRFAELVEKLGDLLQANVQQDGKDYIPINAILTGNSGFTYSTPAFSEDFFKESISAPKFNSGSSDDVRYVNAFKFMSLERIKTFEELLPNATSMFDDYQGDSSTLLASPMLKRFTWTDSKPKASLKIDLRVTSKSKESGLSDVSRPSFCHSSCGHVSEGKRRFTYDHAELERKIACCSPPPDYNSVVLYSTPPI
Chain of TAOK1 (Q7L7X3 whole entry): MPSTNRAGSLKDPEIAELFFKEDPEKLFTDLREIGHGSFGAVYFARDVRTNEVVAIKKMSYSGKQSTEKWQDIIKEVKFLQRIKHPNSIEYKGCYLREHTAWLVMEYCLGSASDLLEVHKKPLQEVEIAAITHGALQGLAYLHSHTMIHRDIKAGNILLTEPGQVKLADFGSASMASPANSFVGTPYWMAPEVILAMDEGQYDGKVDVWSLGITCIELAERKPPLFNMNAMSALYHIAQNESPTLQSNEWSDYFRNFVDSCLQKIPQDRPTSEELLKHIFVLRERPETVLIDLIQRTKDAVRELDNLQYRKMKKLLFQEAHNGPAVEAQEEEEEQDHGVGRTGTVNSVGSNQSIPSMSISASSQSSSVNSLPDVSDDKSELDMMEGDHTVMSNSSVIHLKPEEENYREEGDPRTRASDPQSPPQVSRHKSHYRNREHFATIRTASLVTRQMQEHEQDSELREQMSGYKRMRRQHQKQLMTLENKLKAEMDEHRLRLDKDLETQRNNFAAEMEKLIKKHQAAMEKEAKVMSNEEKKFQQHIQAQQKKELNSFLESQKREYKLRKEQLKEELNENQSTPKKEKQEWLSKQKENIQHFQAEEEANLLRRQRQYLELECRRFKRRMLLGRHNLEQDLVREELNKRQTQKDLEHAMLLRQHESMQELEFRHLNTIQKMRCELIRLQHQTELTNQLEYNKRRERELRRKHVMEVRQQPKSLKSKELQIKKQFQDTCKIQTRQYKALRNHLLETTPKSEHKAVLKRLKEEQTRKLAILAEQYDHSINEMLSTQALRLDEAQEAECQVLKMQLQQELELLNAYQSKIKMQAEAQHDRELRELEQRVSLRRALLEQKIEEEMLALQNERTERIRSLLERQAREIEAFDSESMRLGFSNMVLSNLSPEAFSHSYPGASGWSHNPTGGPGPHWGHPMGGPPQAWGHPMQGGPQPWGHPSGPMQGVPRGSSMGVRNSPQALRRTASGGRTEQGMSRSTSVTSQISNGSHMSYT
Chain of ALK (Q9UM73 19-1620): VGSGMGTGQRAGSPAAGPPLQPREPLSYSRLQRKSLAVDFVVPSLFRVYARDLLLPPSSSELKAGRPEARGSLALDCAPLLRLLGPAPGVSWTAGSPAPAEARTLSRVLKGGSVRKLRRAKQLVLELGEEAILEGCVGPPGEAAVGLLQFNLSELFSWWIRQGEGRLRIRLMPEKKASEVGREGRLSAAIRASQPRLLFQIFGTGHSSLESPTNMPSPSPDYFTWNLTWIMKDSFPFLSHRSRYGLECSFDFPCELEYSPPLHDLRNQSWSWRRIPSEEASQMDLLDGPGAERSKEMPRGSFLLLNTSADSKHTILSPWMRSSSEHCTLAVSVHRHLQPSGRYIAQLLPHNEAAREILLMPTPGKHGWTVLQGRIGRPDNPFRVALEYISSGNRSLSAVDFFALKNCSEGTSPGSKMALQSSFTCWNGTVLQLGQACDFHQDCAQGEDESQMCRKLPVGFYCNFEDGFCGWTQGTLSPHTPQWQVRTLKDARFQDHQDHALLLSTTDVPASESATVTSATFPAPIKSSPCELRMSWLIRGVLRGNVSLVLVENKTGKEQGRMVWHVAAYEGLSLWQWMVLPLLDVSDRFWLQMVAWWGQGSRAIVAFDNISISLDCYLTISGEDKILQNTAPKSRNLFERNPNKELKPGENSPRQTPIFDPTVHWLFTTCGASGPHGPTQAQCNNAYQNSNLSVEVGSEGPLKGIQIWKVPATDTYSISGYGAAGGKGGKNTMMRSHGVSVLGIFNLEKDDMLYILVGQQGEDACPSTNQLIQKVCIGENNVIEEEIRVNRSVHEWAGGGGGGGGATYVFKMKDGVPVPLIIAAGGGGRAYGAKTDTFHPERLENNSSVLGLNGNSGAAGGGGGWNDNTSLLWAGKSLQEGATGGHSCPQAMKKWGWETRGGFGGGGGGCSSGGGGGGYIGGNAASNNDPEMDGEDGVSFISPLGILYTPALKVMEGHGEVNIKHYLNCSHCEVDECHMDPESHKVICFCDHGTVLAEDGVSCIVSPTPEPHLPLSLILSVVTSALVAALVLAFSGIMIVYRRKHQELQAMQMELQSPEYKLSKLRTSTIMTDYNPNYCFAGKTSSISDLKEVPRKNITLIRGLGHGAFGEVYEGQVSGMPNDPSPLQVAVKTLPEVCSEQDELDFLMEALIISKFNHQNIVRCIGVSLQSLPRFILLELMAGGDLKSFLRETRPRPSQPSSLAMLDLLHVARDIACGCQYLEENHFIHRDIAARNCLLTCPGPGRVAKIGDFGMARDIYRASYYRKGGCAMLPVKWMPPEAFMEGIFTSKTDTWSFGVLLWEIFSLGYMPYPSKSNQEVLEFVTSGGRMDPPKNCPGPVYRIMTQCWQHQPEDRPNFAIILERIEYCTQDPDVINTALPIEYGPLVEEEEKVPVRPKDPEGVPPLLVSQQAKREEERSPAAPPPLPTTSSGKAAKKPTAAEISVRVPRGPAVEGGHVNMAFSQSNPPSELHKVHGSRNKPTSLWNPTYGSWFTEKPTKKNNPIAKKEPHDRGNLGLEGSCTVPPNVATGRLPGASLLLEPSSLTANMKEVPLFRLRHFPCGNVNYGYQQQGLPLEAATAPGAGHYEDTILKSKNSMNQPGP

## C=CC(=O)Nc1ccccc1Nc1ncc2c(n1)N(CCCN1CCN(C(=O)C=C)CC1)C(=O)N(c1cc(OC)cc(OC)c1)C2 [CXF-009]
[1]
  inhibition at 1 µM: 30%
[2]
  inhibition at 1 µM: 17.5%
[3]
  inhibition at 1 µM: 13.6%
[4]
  inhibition at 1 µM: 10.5%
[5]
  inhibition at 1 µM: 7.28%
[6]
  inhibition at 1 µM: 7.21%
[7]
  inhibition at 1 µM: 5.91%
[8]
  inhibition at 1 µM: 5.79%
[9]
  inhibition at 1 µM: 5.28%
[10]
  inhibition at 1 µM: 3.99%
[11]
  inhibition at 1 µM: 2.9%
[12]
  inhibition at 1 µM: 2.38%
[13]
  inhibition at 1 µM: 2.32%
[14]
  inhibition at 1 µM: 1.73%
[15]
  inhibition at 1 µM: 1.61%
[16]
  inhibition at 1 µM: 1.59%
[17]
  inhibition at 1 µM: 1.48%
[18]
  inhibition at 1 µM: 1.08%
[19]
  inhibition at 1 µM: 0.97%
[20]
  inhibition at 1 µM: 0.56%
[21]
  inhibition at 1 µM: 0.51%
[22]
  inhibition at 1 µM: 0.27%
[23]
  inhibition at 1 µM: 0.15%
[24]
  inhibition at 1 µM: -0.51%
[25]
  inhibition at 1 µM: -0.52%
[26]
  inhibition at 1 µM: -0.52%
[27]
  inhibition at 1 µM: -0.59%
[28]
  inhibition at 1 µM: -0.87%
[29]
  inhibition at 1 µM: -2.49%
[30]
  inhibition at 1 µM: -2.58%
[31]
  inhibition at 1 µM: -5.03%
[32]
  inhibition at 1 µM: -6.83%
[33]
  inhibition at 1 µM: -7.18%
[34]
  inhibition at 1 µM: -16.3%
[35]
  inhibition at 1 µM: -19.5%
